Experimental data from PMC9409066, “Functional Characterization of the Venus Flytrap Domain of the Human TAS1R2 Sweet Taste Receptor” (International Journal of Molecular Sciences, 2022).
Changes are numbered by the printed parent chain. Where two headings read alike, the source gives them in different places. Marks after values point to notes of the source that are not given here. Residues, ends and D or L forms follow the SMILES beside them.

Assays:
hTAS1R2-VFT = target: T1, hTAS1R2-VFT (Homo sapiens, UniProt Q8TE23); test: Intrinsic tryptophan fluorescence ligand binding, hTAS1R2-VFT
T1 construct: followed by hTAS1R2-VFT (Ala22-Ser493) and another His6-tag at the C-terminus; His6 (thrombin-cleavable) (N); made in house
T1 sequence (Q8TE23 22-493): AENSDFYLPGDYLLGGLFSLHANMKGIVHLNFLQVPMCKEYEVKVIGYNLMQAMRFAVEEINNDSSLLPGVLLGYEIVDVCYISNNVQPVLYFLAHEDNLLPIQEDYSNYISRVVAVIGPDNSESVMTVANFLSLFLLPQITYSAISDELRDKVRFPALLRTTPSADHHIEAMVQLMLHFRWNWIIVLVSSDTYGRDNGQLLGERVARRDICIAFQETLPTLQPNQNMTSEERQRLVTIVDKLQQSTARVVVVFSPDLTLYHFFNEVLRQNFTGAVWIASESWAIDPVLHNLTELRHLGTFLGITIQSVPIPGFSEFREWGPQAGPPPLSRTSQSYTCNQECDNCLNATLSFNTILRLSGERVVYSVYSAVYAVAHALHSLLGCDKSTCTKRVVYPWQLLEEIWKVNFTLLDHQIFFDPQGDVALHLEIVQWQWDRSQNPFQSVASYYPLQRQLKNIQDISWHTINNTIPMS
Source text: Therefore, we tested the binding affinity of hTAS1R2-VFT using an intrinsic tryptophan fluorescence assay. This approach allows one to measure protein–ligand interactions by measuring the fluorescence emitted by tryptophan residues upon the titration of sweet ligands. This technique is very sensitive to changes in the local environment of fluorescent amino acid residues within a protein and has been used to measure protein–ligand binding interactions with mouse, human and cat TAS1R-VFTs. For this purpose, we determined the concentration response relationships for the intrinsic tryptophan fluorescence of hTAS1R2-VFT upon the addition of various sweet compounds.
Figure 4 Binding properties of hTAS1R2-VFT assessed by intrinsic tryptophan fluorescence. Titration curves of hTAS1R2-VFT were generated with natural sugars (pink circles) or sweeteners (blue circles). Circles show experimental data, while the solid lines are the computed binding curves; excitation and emission wavelengths were 295 nm and 340 nm, respectively; hTAS1R2-VFT concentration, 0.5 µM. Data points correspond to the means ± SEMs of at least 12 independent replicates of at least three independently refolded protein samples, except for glucose, 6 independent replicates over three independently refolded protein samples.
All measurements were conducted at 20 °C using a Cary Eclipse spectrofluorimeter (Agilent Technologies, Santa Clara, CA, USA) equipped with a Peltier temperature control unit with a 5 nm bandwidth for emission and excitation. Ligand binding experiments with 0.5 µM hTAS1R2-VFTs were performed in buffer composed of 50 mM Tris-HCl pH 8, 150 mM NaCl, 0.5 mM DDM and 1 mM DTT. The intrinsic fluorescence of hTAS1R2-VFTs was measured at an excitation wavelength of 295 nm, and emission spectra were recorded from 320 to 380 nm. Fluorescence emission values were collected at 340 nm wavelength in the presence and absence of sweet ligands. A range of ligand concentrations were freshly prepared in 50 mM Tris-HCl pH 8.0. For titration experiments, successive 0.4 µL aliquots of sweeteners were added to 400 µL of hTAS1R2-VFT solution. Fluorescence measurements were corrected for bleaching, dilution and nonspecific buffer quenching. The dissociation constants (Kd) were calculated from a plot of the ratio between the fluorescence intensity variation and the maximum fluorescence intensity variation (ΔF/ΔFmax) versus the concentration of the total ligand. Assuming that the binding of hTAS1R2-VFT to sweet compounds is described by a one-site binding model, the Kd values of ligand–receptor interactions were determined with a standard nonlinear regression method using SigmaPlot 12.5 software (Systat Software, Inc., San Jose, CA, USA) as previously described. For each ligand, the experiment was repeated on at least twelve cells over at least three different batches of refolded hTAS1R2-VFT.

human panels = conditions: molar basis, cited from earlier work
[1] = tested on: full-length hTAS1R2/hTAS1R3 receptor E382A; design: method as in PMID 22536376; conditions: cellular assays; cited from earlier work
[2] = target: T2, human TAS1R2/TAS1R3 receptor (Homo sapiens, UniProt Q7RTX0+Q8TE23); conditions: cellular assays, cited from earlier work
T2 sequence (Q8TE23 20-839): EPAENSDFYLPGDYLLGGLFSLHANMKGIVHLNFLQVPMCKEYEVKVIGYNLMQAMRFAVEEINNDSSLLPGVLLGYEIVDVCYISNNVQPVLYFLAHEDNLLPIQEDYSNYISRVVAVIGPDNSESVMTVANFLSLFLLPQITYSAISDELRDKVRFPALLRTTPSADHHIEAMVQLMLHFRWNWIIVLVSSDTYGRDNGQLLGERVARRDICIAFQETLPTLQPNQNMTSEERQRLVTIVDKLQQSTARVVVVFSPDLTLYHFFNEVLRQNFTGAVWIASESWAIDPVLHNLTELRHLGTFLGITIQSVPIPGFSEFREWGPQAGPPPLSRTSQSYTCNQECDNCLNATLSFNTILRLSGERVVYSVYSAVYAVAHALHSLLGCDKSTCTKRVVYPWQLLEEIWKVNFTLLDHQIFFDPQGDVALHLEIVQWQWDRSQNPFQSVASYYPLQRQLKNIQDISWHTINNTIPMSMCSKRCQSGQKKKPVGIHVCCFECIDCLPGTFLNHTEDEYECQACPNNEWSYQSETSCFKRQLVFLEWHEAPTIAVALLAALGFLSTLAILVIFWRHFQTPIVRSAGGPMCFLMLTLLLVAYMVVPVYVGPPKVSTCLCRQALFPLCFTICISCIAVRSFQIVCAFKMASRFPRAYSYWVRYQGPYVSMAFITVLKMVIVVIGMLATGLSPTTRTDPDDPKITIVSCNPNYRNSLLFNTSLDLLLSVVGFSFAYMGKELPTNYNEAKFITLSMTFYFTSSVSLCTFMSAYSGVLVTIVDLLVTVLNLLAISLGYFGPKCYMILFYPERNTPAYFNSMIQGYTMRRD
T2 sequence (Q7RTX0 21-852): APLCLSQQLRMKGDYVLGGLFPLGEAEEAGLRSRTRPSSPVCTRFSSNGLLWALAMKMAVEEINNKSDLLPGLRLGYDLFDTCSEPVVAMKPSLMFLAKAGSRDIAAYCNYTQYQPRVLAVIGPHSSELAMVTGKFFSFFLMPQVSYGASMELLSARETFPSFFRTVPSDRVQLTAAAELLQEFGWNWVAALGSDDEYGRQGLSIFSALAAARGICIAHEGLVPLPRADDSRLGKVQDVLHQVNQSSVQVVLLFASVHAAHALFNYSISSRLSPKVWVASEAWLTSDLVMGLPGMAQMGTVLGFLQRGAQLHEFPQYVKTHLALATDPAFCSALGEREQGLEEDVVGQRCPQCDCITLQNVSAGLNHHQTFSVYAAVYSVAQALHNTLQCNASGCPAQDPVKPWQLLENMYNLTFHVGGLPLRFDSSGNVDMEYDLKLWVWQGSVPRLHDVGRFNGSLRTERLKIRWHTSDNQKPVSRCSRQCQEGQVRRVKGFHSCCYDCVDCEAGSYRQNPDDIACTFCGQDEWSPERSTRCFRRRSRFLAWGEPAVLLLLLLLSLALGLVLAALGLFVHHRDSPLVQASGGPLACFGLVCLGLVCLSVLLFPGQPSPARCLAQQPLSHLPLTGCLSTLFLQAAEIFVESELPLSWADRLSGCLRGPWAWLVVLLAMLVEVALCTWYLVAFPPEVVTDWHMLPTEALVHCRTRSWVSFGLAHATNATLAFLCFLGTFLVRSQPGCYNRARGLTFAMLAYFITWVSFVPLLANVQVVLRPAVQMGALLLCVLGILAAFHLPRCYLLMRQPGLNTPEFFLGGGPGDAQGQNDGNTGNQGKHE

hTAS1R2-VFT-D278A = target: T3, hTAS1R2-VFT-D278A (Homo sapiens, UniProt Q8TE23, D278A); test: Intrinsic tryptophan fluorescence ligand binding, mutant D278A; conditions: Table 2, read-out: Apparent Kd hTAS1R2-VFT-D278A
T3 construct: followed by hTAS1R2-VFT (Ala22-Ser493) and another His6-tag at the C-terminus; His6 (thrombin-cleavable) (N); made in house
T3 sequence (Q8TE23 22-493 D278A): T1 sequence (Q8TE23 22-493) with D257A
Source text: To further confirm that the binding is specific, we performed mutagenesis studies on hTAS1R2-VFT. […] We performed ligand-binding titration assays in the same way as for hTAS1R2-VFT for the two point mutants.
Figure 5 Titration curves of hTAS1R2-VFT-D278A (blue triangles) and hTAS1R2-VFT (black circles) with sucralose (A) and aspartame (B). Circles and triangles show experimental data, while the solid lines are the computed binding curves. Wild-type receptor dose–responses are the same as for Figure 4. Data points correspond to the means ± SEMs of at least 12 independent replicates of at least three independently refolded protein samples.
All measurements were conducted at 20 °C using a Cary Eclipse spectrofluorimeter (Agilent Technologies, Santa Clara, CA, USA) equipped with a Peltier temperature control unit with a 5 nm bandwidth for emission and excitation. Ligand binding experiments with 0.5 µM hTAS1R2-VFTs were performed in buffer composed of 50 mM Tris-HCl pH 8, 150 mM NaCl, 0.5 mM DDM and 1 mM DTT. The intrinsic fluorescence of hTAS1R2-VFTs was measured at an excitation wavelength of 295 nm, and emission spectra were recorded from 320 to 380 nm. Fluorescence emission values were collected at 340 nm wavelength in the presence and absence of sweet ligands. […] Fluorescence measurements were corrected for bleaching, dilution and nonspecific buffer quenching. […]

[3] = tested on: full-length hTAS1R2/hTAS1R3 receptor D278A; design: method as in PMID 22536376; conditions: cellular-based assay; cited from earlier work
[4] = target: T2, human TAS1R2/TAS1R3 receptor; test: Cellular-based assay of the sweet taste receptor (EC50); assay type: cell-based
Source text: We determined its affinity constants for natural sugars using dose–response curves.

human TAS1R3-VFT = target: human TAS1R3-VFT; design: method as in PMID 22450161; conditions: cited from earlier work
[5] = Table 1, intrinsic fluorescence, 0.5 µM protein, 20 °C, pH 8, read-out: hTAS1R2-VFT (Kd)
[6] = in water equivalent to 5% sucrose, ref Shallenberger, 1993
[7] = in water equivalent to 2% sucrose, ref Schiffman and Gatlin, 1993
[8] = in water equivalent to 2% sucrose, ref Bassoli et al., 2002

Structure (SMILES) | Kd (hTAS1R2-VFT; [5]) [µM] | Sweetness Potency (human panels; [7]) | other results
OC[C@H]1O[C@@H](O[C@H]2[C@H](O)[C@@H](O)C(O)O[C@@H]2CO)[C@H](O)[C@@H](O)[C@H]1O (mixture of isomers) [Lactose] | > 70000 | – | Sweetness Potency (human panels; [6]): 0.3 ^f
CC1=CC(=O)NS(=O)(=O)O1 [Acesulfame-K] | 0.9 ± 0.2 | 200 ^e | effect of E382A on the full-length receptor response [1]: abolishes
C[C@@H](NC(=O)[C@@H](N)CC(=O)O)C(=O)NC1C(C)(C)SC1(C)C [Alitame] | 0.15 ± 0.03 | 4500 ^e | EC50 ([2]; ref unpublished data obtained from collaborators): 13.8 ± 0.3 µM
COC(=O)[C@H](Cc1ccccc1)NC(=O)[C@@H](N)CC(=O)O [Aspartame] (H-Asp-Phe-OMe) | 17.2 ± 3.1 | 250 ^e | Kd (hTAS1R2-VFT-D278A): 223 ± 27.7 µM; EC50 ([2]; ref Masuda et al., 2012): 75 ± 11 µM; effect of D278A on the full-length receptor response [3]: decrease the response
O=S(=O)(O)NC1CCCCC1 [Cyclamate] | – | 26 ^e | –
O=C(CO)[C@@H](O)[C@H](O)[C@H](O)CO [Fructose] | – | 0.7 ^e | Kd (hTAS1R2-VFT): 900 ± 200 µM; EC50 [4]: 8000 ± 4000 µM
OC[C@H]1OC(O)[C@H](O)[C@@H](O)[C@@H]1O (some centres unmarked) [Glucose] | 1500 ± 300 | – | Sweetness Potency (human panels; [6]): 0.6 ^f
COC(=O)[C@H](Cc1ccccc1)NC(=O)[C@H](CC(=O)O)NCCC(C)(C)C [Neotame] | 0.09 ± 0.02 | – | Sweetness Potency (human panels; [8]): 11,000 ^g
C=C(C)[C@@H]1CC=C(/C=N/O)CC1 [Perillartine] | – | – | EC50 ([2]; ref Belloir et al., 2021): 2.54 ± 0.48 µM; Sweetness Potency (human panels; [8]): 1000 ^g
O=C1NS(=O)(=O)c2ccccc21 [Saccharin] | – | 500 ^e | –
OC[C@H]1O[C@H](O[C@]2(CCl)O[C@H](CCl)[C@@H](O)[C@@H]2O)[C@H](O)[C@@H](O)[C@H]1Cl [Sucralose] | 7 ± 1.3 | 600 ^e | effect of E382A on the full-length receptor response [1]: reduces; binding affinity for human TAS1R3-VFT (human TAS1R3-VFT): millimolar range; effect of D278A on the full-length receptor response [3]: abolish the response
OC[C@H]1O[C@@](CO)(O[C@H]2O[C@H](CO)[C@@H](O)[C@H](O)[C@H]2O)[C@@H](O)[C@@H]1O [Sucrose] | 4200 ± 900 | 1 ^e | EC50 ([4]; cellular assays, unpublished data from our laboratory, read-out: EC50): 11000 ± 3000 µM
